Measurements from ChEMBL document CHEMBL5661967, “Antitumor activity of HKI-272, an orally active, irreversible inhibitor of the HER-2 tyrosine kinase” (Cancer Res, 2004).
pIC50: −log10 of the molar value.

Molecular target: Receptor tyrosine-protein kinase erbB-2 (Homo sapiens, UniProt P04626)
Assay: Inhibition of recombinant N-terminal His6-tagged HER2 cytoplasmic domain (676 to 1255 residues) (unknown origin) expressed in baculovirus infected Sf9 insect cells assessed as reduction in autophosphorylation preincubated for 15 mins followed by ATP addition and measured after 1 hr by ELISA

Chain of Receptor tyrosine-protein kinase erbB-2 (P04626 whole entry, the tested form may be a part): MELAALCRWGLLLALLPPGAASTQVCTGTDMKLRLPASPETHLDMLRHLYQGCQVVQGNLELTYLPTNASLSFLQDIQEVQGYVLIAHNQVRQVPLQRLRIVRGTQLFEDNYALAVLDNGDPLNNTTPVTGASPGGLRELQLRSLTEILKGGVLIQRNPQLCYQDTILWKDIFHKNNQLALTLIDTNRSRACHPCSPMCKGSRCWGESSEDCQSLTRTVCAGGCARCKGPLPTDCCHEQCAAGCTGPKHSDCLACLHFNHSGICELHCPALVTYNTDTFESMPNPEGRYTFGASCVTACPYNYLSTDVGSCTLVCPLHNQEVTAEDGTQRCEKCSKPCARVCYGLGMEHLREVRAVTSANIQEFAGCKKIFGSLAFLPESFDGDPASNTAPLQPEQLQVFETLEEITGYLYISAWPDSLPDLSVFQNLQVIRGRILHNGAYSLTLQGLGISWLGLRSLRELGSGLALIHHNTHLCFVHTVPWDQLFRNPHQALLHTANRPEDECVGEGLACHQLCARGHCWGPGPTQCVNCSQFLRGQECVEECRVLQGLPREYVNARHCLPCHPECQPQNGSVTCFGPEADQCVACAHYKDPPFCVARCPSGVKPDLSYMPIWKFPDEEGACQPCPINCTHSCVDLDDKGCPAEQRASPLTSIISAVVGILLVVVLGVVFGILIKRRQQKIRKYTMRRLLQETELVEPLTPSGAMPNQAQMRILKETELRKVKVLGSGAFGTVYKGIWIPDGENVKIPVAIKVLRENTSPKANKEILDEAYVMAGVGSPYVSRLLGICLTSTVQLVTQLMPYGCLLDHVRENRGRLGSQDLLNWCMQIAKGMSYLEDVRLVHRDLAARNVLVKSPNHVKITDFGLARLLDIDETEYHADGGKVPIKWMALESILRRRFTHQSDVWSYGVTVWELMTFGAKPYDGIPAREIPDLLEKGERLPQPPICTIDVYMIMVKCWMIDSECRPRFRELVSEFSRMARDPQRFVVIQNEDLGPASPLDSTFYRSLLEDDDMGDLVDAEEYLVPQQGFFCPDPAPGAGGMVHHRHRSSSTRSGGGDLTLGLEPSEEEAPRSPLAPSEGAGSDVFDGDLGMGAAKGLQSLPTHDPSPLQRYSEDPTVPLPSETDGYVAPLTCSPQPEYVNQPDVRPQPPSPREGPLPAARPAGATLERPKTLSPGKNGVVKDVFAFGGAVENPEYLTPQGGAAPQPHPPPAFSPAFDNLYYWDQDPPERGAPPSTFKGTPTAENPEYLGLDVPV

A pIC50 of 5.90 was found for `CCOc1cc2ncc(C#N)c(Nc3ccc(F)c(Cl)c3)c2cc1NC(=O)/C=C/CN(C)C` [PELITINIB] in this work.
